Test results taken from ChEMBL document CHEMBL3046062, “Anti-HIV, antimycobacterial and antimicrobial studies of newly synthesized 1,2,4-triazole clubbed benzothiazoles” (Med Chem Res, 2013).
≈ marks a conversion by molar mass, not a printed value.

Columns and labels:
Escherichia coli = test: Antibacterial activity against Escherichia coli MTCC 442 after overnight incubation by broth microdilution method; assay type: functional
Pseudomonas aeruginosa = test: Antibacterial activity against Pseudomonas aeruginosa MTCC 2488 after overnight incubation by broth microdilution method; assay type: functional
[1] = system: Mycobacterium tuberculosis; test: Growth inhibition of Mycobacterium tuberculosis H37Rv at MIC after 28 days by Lowenstein-Jensen agar method; assay type: functional
Staphylococcus aureus = test: Antibacterial activity against Staphylococcus aureus MTCC 96 after overnight incubation by broth microdilution method; assay type: functional
Streptococcus pyogenes = test: Antibacterial activity against Streptococcus pyogenes MTCC 443 after overnight incubation by broth microdilution method; assay type: functional
Candida albicans = test: Antifungal activity against Candida albicans MTCC 227 after overnight incubation by broth microdilution method; assay type: functional
[2] = system: Human immunodeficiency virus 1; test: Antiviral activity against Human immunodeficiency virus 1 IIIB infected MT4 cells assessed as inhibition of virus-induced cytopathogenicity after 5 days by MTT assay; assay type: functional, organism-based; settings: MT4, 120 h
Aspergillus niger = test: Antifungal activity against Aspergillus niger MTCC 282 after overnight incubation by broth microdilution method; assay type: functional
[3] = Selectivity index, ratio of CC50 for human MT4 cells to IC50 for HIV1 3B; assay type: functional
[4] = Selectivity index, ratio of CC50 for human MT4 cells to IC50 for HIV2 ROD; assay type: functional
[5] = system: Human immunodeficiency virus 2; test: Antiviral activity against Human immunodeficiency virus type 2 (ISOLATE ROD) infected MT4 cells assessed as inhibition of virus-induced cytopathogenicity after 5 days by MTT assay; assay type: functional, organism-based; settings: Human immunodeficiency virus 2, ISOLATE ROD, MT4, 120 h
Aspergillus clavatus = test: Antifungal activity against Aspergillus clavatus MTCC 323 after overnight incubation by broth microdilution method; assay type: functional
[6] = system: Mycobacterium tuberculosis; test: Antitubercular activity against Mycobacterium tuberculosis H37Rv after 28 days by Lowenstein-Jensen agar method; assay type: functional; settings: 672 h
[7] = Cytotoxicity against Homo sapiens (human) MT4 cells after 5 days by MTT assay; assay type: cell-based

| Structure (SMILES) | MIC99 (Escherichia coli) | MIC99 (Pseudomonas aeruginosa) | growth inhibition (GI) [1] | MIC99 (Staphylococcus aureus) | MIC99 (Streptococcus pyogenes) | MIC99 (Candida albicans) | IC50 [2] | MIC99 (Aspergillus niger) | Ratio CC50/IC50 [3] | Ratio CC50/IC50 [4] | IC50 [5] | MIC99 (Aspergillus clavatus) | MIC [6] | CC50 at 120 h [7] |
| --- | --- | --- | --- | --- | --- | --- | --- | --- | --- | --- | --- | --- | --- | --- |
| O=[N+]([O-])c1cccc2sc(Nn3c(-c4ccc(Cl)cc4)nnc3-c3cccnc3)nc12 | 100 mg/L (≈ 222 µM) | 125 mg/L (≈ 278 µM) | 97% | 200 mg/L (≈ 445 µM) | 250 mg/L (≈ 556 µM) | 100 mg/L (≈ 222 µM) | > 21.3 mg/L | 500 mg/L (≈ 1110 µM) | <1 | <1 | > 21.3 mg/L | 500 mg/L (≈ 1110 µM) | 500 mg/L (≈ 1110 µM) | 21.3 mg/L (≈ 47.4 µM) |
| Clc1ccc(-c2nnc(-c3cccnc3)n2Nc2nc3ccc(Cl)cc3s2)cc1 | 1000 mg/L (≈ 2280 µM) | 500 mg/L (≈ 1140 µM) | 96% | 250 mg/L (≈ 569 µM) | 500 mg/L (≈ 1140 µM) | 100 mg/L (≈ 228 µM) | > 54.3 mg/L | 500 mg/L (≈ 1140 µM) | <1 | <1 | > 54.3 mg/L | 1000 mg/L (≈ 2280 µM) | 250 mg/L (≈ 569 µM) | 54.3 mg/L (≈ 124 µM) |
| Clc1ccc(-c2nnc(-c3cccnc3)o2)cc1 | 500 mg/L (≈ 1940 µM) | 500 mg/L (≈ 1940 µM) | 98% | 200 mg/L (≈ 776 µM) | 250 mg/L (≈ 970 µM) | 500 mg/L (≈ 1940 µM) | > 4.49 mg/L | 1000 mg/L (≈ 3880 µM) | <1 | <1 | > 4.49 mg/L | 1000 mg/L (≈ 3880 µM) | 500 mg/L (≈ 1940 µM) | 4.49 mg/L (≈ 17.4 µM) |
